Results from PMC11641365, “Evaluation of In Vitro Biological Activity of Flavanone/Chromanone Derivatives: Molecular Analysis of Anticancer Mechanisms in Colorectal Cancer” (International Journal of Molecular Sciences, 2024).

Key:
Format in all cases: cell-based, human
LoVo [1] = assay: Intracellular GSH level, monochlorobimane (MCB) probe; settings: compound at IC50, 24 h, vs control
Method: (§1) The spectrofluorimetric method with monochlorobimane (MCB; Sigma-Aldrich; St. Louis, MO, USA) was used to determine GSH. Monochlorobimane reacts with glutathione in a reaction catalyzed by cellular glutathione S-transferase. The reaction produces a fluorescent bimane-glutathione conjugate (GSH-MCB). A major advantage of MCB is its ability to penetrate the cell membrane, which is why it is used as a probe to determine the amount of GSH in living cells.
(§2) Cells were seeded in black 96-well fluorometric microplates at a density of 10 × 10^3 cells/mL. […] Following compound incubation, the medium was removed, and the cell monolayers were washed twice with HBSS (140 mM NaCl, 5 mM KCl, 0.8 mM MgCl2, 1.8 mM CaCl2, 1 mM Na2HPO4, 10 mM HEPES, and 1% glucose). A solution of MCB at a final concentration of 40 μM was added to each well and incubated in a CO2 cell culture incubator at 37 °C for 20 min. A 40 mM MCB stock solution was prepared by dissolving 9 mg of the reagent in 1 mL of absolute ethanol. Fluorescence was measured using a Perkin-Elmer LS-5B spectrofluorometer (Waltham, MA, USA) at the following excitation and fluorescence emission wavelengths: λex = 380 nm/λem = 470 nm. After incubation with MCB, the cells were lysed with 50 μL of lysis buffer (10 mM TRIS-HCl; pH 8 containing 0.1% Triton X-100). In order to normalize the number of cells in individual samples, the amount of DNA was determined by adding 50 μL of ethidium bromide (EB, final concentration 0.2 mM) to each well after measuring the MCB fluorescence and measuring the EB fluorescence at an excitation wavelength of λex = 530 nm and an emission wavelength of λem = 590 nm. The results obtained using the standard curve were converted to nM of GSH.

SW620 [2] = assay: as above; settings: compound at IC50, 24 h, vs control
Method: as §1, §2

HCT 116 = assay: Cell cycle analysis via flow cytometry (propidium iodide); settings: compound at IC50, 24 h, vs control
Method: (§3) The most commonly used fluorescent dyes for cell cycle analysis are fluorochromes that penetrate the cell membrane into the interior of permeabilized cells and bind stoichiometrically to DNA via intercalation, e.g., DAPI, propidium iodide (PI). The analysis is performed on cells fixed in ethanol. In this work, the cell cycle analysis was performed using the method described by Darzynkiewicz and Juan.
(§4) Cells (10 × 10^3) were seeded in 35 mm dishes and cultured in the medium for 24 h to attain the logarithmic growth phase. […] Subsequently, cells were trypsinized and centrifuged for 10 min at 400× g at 4 °C. The cell suspension in 100 μL of PBS was fixed in 1 mL of 70% ethanol (−20 °C) and stored at this temperature until analysis. Immediately before analysis, the ethanol-fixed cell suspension was centrifuged at 10,000 rpm for 10 min at 4 °C. The pellet was washed with cold (4 °C) PBS to remove residual ethanol, and the cell suspension was centrifuged again under the same conditions. A volume of 300 μL of PBS containing 4 mg/mL propidium iodide (final concentration 75 μM) and 1 mg/mL RNAse A (final concentration 20 μg/mL) was added to the cell pellet and incubated for at least 30 min at 37 °C in the dark. Stained cells were analyzed using a flow cytometer (Becton Dickinson, Franklin Lakes, NJ, USA), counting 10,000 cells in each sample. Data were analyzed using FlowJo 10.10 software (FlowJo, Williamson Way Ashland, OR, USA).

LoVo [3] = assay: as above; settings: compound at IC50, 24 h, vs control
Method: as §3, §4

SW620 [4] = assay: as above; settings: compound at IC50, 24 h; for Increase in the G2/M phase cell fraction: vs control
Method: as §3, §4

[5] = tested on: HCT 116, SW620, LoVo, Caco-2, and HT-29 cancer cell lines; assay: Alkaline comet assay (DNA damage), all cell lines; settings: compound at IC50, 12 h; all five cell lines
From the text: Single-cell gel electrophoresis, also known as the comet assay, is a rapid and sensitive method for assessing DNA damage at the single-cell level. Cells are lysed and electrophoresed. Both single-strand and double-strand breaks are detected under alkaline conditions. The released DNA is denatured and moves in the agarose gel toward the anode during electrophoresis. The image, obtained after staining with the fluorescent dye 4′,6-diamidino-2-phenylindole (DAPI), resembles a “comet” with a distinct “head” (intact DNA) and “tail” (damaged DNA fragments). The length of the tail depends on the number and size of the broken DNA strands.
Cells (1 × 10^3) were seeded in 35 mm dishes and cultured in the medium for 24 h to attain the logarithmic growth phase. […] Subsequently, cells were trypsinized and centrifuged for 10 min at 100× g at 4 °C. A small amount of PBS and a 0.5% solution of low-melting-point agarose (LMP agarose) were added to the obtained cell pellet and placed on a glass slide covered with two layers of normal-melting-point agarose (NMP agarose). The slides were incubated for 24 h in a lysis buffer (2.5 M NaCl, 100 mM, Na2EDTA, 10 mM, Tris, 1% Triton X-100) to release DNA. […] Quantitative analysis of the DNA comet image of preparations stained with DAPI solution (2 μg/L) was performed using a camera connected to a fluorescence microscope. The comet DNA analysis was performed under a Nikon Eclipse fluorescence microscope (Nikon, Tokyo, Japan) equipped with a 4910 COHU video camera (Cohu, Inc., San Diego, CA, USA) and a computer with Lucia-Comet v. […] Each time, from each preparation, 100 randomly selected comets were counted. The extent of DNA damage is quantified by measuring the length of the comet tail and the amount of DNA it contains. The Lucia Comet software calculated the percentage of DNA damage based on measurements of color intensity and comet tail length. The intensity of fluorescence was determined by the software, which calculated a series of parameters characterizing the extent of DNA damage for each cell. […]

Compound | Decrease in GSH levels (LoVo [1]) | Decrease in GSH levels (SW620 [2]) [%] | Increase in the G2/M phase cell fraction (HCT 116) | Increase in the G2/M phase cell percentage (LoVo [3]) | Increase in the G2/M phase cell fraction (SW620 [4]) | Genotoxic properties (comet assay) [5] | Change in cell cycle parameters or G2/M phase arrest (SW620 [4])
COc1cccc(/C=C2/C(=O)c3ccccc3OC2c2ccccc2)c1 (stereo not drawn) [Compound 3] | 30–35% | 30 | approximately 30% | approximately 35% | approximately 20% | potent genotoxic properties | –
O=C1/C(=C/c2ccccc2)C(c2ccccc2)Oc2ccccc21 (stereo not drawn) [Compound 5] | 30–35% | 30 | 20% | approximately 20% | ~13% | potent genotoxic properties | –
O=C1/C(=C/c2ccccc2)COc2ccccc21 [Compound 1] | 30–35% | 40 | approximately 10% | approximately 10% | – | potent genotoxic properties | no statistically significant changes
